We go through nine compounds from patent publication US20260317344A1, “EGFR INHIBITORS FOR TREATING DISEASE” (BLOSSOMHILL THERAPEUTICS, INC., priority 2023, published 2026).

Assay [1] deals with BaF3 cells with engineered EGFR L858R/T790M/C797S. The experiment in a line: 3-Day CellTiter Glo (CTG) cell proliferation assay, BaF3 EGFR L858R/T790M/C797S. Format: cell-based. As to conditions: Mus musculus, 3-day CTG proliferation, 72 hours. The procedure:
(§1) 3-DAY CellTiter Glo (CTG) Cell Proliferation Assays (BaF3 Cell Lines)
(§2) Cell proliferation assays were carried out in BaF3 cells engineered with EGFR mutations. BaF3 cells with engineered EGFR L858R/T790M/C797S, EGFR L858R/C797S, or EGFR d746-750/T790M transgene, one thousand cells/50 μL per well were seeded in white 384-well plate, followed by treatment with indicated compounds in a 9-dose dilution series using TECAN d300e liquid dispenser. Cells were incubated with compounds for 72 hours at 37° C. and 5% CO2. Cell proliferation was measured using CellTiter-Gbo 2.0 luciferase-based ATP detection assay (Promega, Madison, WI) at 18 μL per well following the manufacturer's protocol. Plates were then read on a TECAN Sparks multimode microplate reader. Data was analyzed using GraphPad Prism 9 (GraphiPad Software, San Diego, CA) to obtain IC50 values.
Background: In ATP-based viability assays light output follows the ATP content of the culture.

Assay [2] addresses T1, pEGFR, NCI-H1975 cells (L858R/T790M EGFR) (Homo sapiens, UniProt P00533, L858R/T790M).
T1 construct: pEGFR (Tyr1068) TR-FRET
The experiment in a line: Cellular EGFR phosphorylation assay (LANCE Ultra TR-FRET) in NCI-H1975 cells. The settings on record: 4 hours at 37° C., read-out: H1975 pEGFR IC50. The assay is classed as cell-based. The gist of the method: (§3)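 PC-9 and NCI-H1975 cells (50 thousand/well) or A431 cells (30 thousand/well) treated next day for 4 h at 37° C with a 9-dose 3-fold titration; A431 stimulated with 40 ng/mL EGF for the final 10 min. Lysate phospho-EGFR (Tyr1068) read by LANCE Ultra TR-FRET; IC50 derived.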

Another assay has as its system HCC827 cells. As to the kind of experiment: 5-Day CellTiter Glo (CTG) cell proliferation assay, HCC827. The assay is classed as cell-based. As to conditions: Homo sapiens; HCC827 cells (d746-750 EGFR), 5-day CTG proliferation, 120 hours; read-out: HCC827 IC50. The procedure, abridged: (§4)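 Luminescent ATP signal (CellTiter-Glo 2.0) after 120 hours of compound exposure gave IC50 values. PC-9 and HCC827 harbour EGFR d746-750; NCI-H1975 harbours L858R/T790M.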

In another assay the test system is PC-9 cells. The experiment in a line: 5-Day CellTiter Glo (CTG) cell proliferation assay, PC-9. The assay is classed as cell-based. As to conditions: Homo sapiens; PC-9 cells (d746-750 EGFR), 5-day CTG proliferation, 120 hours; read-out: PC-9 IC50. The procedure, abridged: as §4
Assay [3] concerns BaF3 cells with engineered EGFR L858R/C797S. As to the kind of experiment: 3-Day CellTiter Glo (CTG) cell proliferation assay, BaF3 EGFR L858R/C797S. The assay is classed as cell-based. As to conditions: Mus musculus, 3-day CTG proliferation, 72 hours. As for the experimental part:
as §1, §2

The next assay deals with NCI-H1975 cells. As to the kind of experiment: 5-Day CellTiter Glo (CTG) cell proliferation assay, NCI-H1975. The assay is classed as cell-based. The settings on record: Homo sapiens; NCI-H1975 cells (L858R/T790M EGFR), 5-day CTG proliferation, 120 hours; read-out: H1975 IC50. The procedure, abridged:
as §4

Assay [4] concerns the target T2, pEGFR, A431 cells (wildtype EGFR) (Homo sapiens, UniProt P00533).
T2 construct: pEGFR (Tyr1068) TR-FRET
As to the kind of experiment: Cellular EGFR phosphorylation assay (LANCE Ultra TR-FRET) in A431 cells. Format: cell-based. The settings on record: 4 hours at 37° C., 40 ng/mL EGF for the final 10 minutes, read-out: A431 pEGFR IC50. The procedure, abridged:
as §3

Assay [5] relates to BaF3 cells with engineered EGFR d746-750/T790M. The experiment in a line: 3-Day CellTiter Glo (CTG) cell proliferation assay, BaF3 EGFR d746-750/T790M. The assay is classed as cell-based. As to conditions: Mus musculus; BaF3 EGFR d746-750/T790M cells, 3-day CTG proliferation, 72 hours. As for the experimental part:
as §1, §2

Assay [6] addresses T3, pEGFR, PC-9 cells (d746-750 EGFR) (Homo sapiens, UniProt P00533, DEL746-750).
T3 construct: pEGFR (Tyr1068) TR-FRET
As to the kind of experiment: Cellular EGFR phosphorylation assay (LANCE Ultra TR-FRET) in PC-9 cells. Format: cell-based. As to conditions: 4 hours at 37° C., read-out: PC-9 pEGFR IC50. The procedure, abridged: as §3

In a further assay the target is EGFR (L858R/T790M/C797S) (Homo sapiens, UniProt P00533, C797S/L858R/T790M). The experiment in a line: HotSpot radiometric kinase assay, inhibition of EGFR L858R/T790M/C797S mutant. The assay is classed as biochemical. The settings on record: 33P ATP, room temperature, 120 m. The procedure, abridged:
(§5)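 Kinase/substrate pairs in 20 mM HEPES pH 7.5, 10 mM MgCl2, 1 mM EGTA, 0.02% Brij35, 0.02 mg/ml BSA, 0.1 mM Na3VO4, 2 mM DTT, 1% DMSO, preincubated ~20 min with compound. Reaction started with ATP/33P-ATP ([…]), run 120 min at room temperature; phosphorylation read by P81 filter binding, IC50 from curve fits.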

For another assay, the target named is EGFR (D770_N771insNPG) (Homo sapiens, UniProt P00533, INS770NPG). The experiment in a line: HotSpot radiometric kinase assay, inhibition of EGFR (D770_N771insNPG) mutant. Format: biochemical. The settings on record: 33P ATP, room temperature, 120 m. The procedure, abridged: as §5
Another assay addresses EGFR (D746-750) (Homo sapiens, UniProt P00533, DEL746-750). The experiment in a line: HotSpot radiometric kinase assay, inhibition of EGFR 746-750 mutant. Format: biochemical. As to conditions: 33P ATP, room temperature, 120 m. The procedure, abridged:
as §5

The next assay concerns the target EGFR (D746-750/C797S) (Homo sapiens, UniProt P00533, C797S/DEL746-750). As to the kind of experiment: HotSpot radiometric kinase assay, inhibition of EGFR 746-750/C797S mutant. Format: biochemical. As to conditions: 33P ATP, room temperature, 120 m. The gist of the method:
as §5

T1 sequence (P00533 25-1210 T790M/L858R): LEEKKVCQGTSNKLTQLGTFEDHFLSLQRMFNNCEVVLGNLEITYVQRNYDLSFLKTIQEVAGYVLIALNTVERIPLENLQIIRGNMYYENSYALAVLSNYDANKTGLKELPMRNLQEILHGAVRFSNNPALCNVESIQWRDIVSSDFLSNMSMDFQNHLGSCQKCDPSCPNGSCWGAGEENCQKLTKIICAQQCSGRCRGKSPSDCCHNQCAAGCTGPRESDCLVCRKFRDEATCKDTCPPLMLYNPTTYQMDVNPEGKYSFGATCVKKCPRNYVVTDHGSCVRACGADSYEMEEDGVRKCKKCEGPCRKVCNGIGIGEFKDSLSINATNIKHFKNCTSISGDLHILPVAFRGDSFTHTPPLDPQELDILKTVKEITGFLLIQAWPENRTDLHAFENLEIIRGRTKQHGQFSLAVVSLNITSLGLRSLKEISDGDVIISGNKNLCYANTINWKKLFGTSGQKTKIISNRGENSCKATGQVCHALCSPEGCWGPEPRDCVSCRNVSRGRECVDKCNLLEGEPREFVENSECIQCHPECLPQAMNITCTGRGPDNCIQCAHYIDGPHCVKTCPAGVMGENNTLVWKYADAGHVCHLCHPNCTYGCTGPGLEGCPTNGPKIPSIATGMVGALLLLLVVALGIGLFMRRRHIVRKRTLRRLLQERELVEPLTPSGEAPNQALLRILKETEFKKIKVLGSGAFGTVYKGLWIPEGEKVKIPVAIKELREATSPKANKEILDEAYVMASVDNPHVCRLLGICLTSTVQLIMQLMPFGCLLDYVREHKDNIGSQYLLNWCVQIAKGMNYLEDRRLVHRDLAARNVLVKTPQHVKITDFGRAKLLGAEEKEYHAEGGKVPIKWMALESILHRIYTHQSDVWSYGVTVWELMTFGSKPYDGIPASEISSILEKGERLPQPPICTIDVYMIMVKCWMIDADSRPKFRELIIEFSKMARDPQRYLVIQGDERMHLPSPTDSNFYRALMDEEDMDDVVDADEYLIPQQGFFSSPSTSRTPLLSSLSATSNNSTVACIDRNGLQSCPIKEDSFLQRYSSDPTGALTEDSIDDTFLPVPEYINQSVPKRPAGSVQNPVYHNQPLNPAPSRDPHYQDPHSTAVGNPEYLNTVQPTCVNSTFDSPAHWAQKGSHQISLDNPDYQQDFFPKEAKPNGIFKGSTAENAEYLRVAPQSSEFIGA
T2 sequence (P00533 25-1210): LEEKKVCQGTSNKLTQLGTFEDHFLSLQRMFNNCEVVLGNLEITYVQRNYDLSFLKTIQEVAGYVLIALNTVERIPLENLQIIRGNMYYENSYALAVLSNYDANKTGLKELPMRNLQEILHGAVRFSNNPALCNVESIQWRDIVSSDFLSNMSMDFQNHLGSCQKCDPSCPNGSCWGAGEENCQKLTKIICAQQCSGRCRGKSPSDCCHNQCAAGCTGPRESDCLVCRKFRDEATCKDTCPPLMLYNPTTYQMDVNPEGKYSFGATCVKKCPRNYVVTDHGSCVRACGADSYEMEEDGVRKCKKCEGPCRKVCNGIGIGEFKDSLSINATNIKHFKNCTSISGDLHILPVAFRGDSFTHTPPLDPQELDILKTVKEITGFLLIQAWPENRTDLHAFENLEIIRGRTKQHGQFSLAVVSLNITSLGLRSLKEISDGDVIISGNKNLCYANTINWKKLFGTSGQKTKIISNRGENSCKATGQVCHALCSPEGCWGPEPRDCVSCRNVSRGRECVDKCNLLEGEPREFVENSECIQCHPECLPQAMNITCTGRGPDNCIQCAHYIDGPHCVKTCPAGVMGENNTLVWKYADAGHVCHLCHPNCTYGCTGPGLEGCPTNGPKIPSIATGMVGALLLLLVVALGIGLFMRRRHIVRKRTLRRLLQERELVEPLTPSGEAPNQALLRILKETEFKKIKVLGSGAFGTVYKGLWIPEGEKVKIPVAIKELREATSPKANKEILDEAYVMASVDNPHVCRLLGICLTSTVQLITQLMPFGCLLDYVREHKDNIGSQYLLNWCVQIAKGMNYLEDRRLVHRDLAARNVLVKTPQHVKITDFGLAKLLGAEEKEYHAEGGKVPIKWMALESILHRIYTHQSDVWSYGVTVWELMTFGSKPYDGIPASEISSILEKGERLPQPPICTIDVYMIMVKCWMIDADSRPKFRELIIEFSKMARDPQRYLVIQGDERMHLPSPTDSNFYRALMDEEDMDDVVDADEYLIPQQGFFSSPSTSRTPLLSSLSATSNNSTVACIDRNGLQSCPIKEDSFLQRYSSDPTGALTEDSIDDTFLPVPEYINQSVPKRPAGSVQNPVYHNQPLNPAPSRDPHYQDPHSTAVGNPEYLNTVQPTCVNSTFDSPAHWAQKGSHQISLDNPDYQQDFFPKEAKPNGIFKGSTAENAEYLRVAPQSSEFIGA
T3 sequence (P00533 with tags, fused parts or gaps DEL746-750): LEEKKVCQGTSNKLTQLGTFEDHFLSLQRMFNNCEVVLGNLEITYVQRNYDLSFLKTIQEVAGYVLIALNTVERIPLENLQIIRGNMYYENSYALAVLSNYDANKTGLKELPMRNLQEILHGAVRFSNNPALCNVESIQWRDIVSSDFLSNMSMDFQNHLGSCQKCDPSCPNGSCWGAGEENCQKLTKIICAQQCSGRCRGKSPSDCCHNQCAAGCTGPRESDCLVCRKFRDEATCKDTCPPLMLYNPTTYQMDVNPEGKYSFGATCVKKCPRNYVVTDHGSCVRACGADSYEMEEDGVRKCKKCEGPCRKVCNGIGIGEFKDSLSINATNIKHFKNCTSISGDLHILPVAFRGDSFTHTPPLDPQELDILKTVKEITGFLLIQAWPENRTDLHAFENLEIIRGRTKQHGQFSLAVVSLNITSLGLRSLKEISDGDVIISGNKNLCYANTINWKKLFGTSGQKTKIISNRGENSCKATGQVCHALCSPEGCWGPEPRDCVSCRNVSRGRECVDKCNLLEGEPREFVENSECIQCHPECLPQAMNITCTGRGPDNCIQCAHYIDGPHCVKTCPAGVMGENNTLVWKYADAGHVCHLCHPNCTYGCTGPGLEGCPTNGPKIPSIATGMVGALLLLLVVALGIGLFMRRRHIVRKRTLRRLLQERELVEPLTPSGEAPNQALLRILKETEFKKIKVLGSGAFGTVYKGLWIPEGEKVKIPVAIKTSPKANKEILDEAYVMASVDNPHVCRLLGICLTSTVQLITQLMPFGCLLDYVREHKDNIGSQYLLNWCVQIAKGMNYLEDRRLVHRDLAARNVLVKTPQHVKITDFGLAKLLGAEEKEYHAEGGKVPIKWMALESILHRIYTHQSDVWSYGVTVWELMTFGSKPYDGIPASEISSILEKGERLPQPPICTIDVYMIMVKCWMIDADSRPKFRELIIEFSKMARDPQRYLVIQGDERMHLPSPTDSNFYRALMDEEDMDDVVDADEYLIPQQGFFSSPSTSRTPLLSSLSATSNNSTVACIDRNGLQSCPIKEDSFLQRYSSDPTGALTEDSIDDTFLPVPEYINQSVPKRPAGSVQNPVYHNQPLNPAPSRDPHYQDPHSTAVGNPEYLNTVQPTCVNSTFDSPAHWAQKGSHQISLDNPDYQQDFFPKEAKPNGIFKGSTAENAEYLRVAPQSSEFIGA
Sequence of EGFR (D746-750/C797S) (P00533 with tags, fused parts or gaps DEL746-750/C797S): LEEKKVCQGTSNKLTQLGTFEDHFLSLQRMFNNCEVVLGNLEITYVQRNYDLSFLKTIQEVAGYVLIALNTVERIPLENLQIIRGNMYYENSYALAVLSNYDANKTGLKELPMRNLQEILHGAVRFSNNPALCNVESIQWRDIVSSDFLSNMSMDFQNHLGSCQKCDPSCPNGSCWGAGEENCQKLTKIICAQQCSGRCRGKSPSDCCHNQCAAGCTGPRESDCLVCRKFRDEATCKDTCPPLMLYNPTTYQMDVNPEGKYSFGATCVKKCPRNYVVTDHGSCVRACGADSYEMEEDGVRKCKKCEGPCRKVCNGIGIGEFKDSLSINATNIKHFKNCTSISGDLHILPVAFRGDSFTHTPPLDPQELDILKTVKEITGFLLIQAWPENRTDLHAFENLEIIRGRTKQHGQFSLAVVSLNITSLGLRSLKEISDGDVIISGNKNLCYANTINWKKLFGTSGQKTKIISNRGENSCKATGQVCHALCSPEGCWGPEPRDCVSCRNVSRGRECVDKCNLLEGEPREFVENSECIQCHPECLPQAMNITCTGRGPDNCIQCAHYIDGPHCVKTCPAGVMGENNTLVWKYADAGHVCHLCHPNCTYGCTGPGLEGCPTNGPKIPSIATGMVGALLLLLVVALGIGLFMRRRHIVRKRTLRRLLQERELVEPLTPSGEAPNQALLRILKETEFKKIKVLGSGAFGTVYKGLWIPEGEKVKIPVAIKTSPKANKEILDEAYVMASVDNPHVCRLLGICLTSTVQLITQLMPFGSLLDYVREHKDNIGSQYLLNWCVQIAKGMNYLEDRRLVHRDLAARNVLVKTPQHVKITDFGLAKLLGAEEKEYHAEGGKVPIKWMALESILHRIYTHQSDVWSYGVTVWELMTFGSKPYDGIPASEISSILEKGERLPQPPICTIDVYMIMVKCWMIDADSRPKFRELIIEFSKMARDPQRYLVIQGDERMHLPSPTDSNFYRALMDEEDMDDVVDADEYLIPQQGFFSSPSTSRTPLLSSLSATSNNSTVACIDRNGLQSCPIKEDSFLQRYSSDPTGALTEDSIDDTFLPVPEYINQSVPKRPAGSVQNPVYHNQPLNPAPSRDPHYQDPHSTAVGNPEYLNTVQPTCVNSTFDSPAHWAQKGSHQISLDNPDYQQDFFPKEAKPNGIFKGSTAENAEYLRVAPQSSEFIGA

On to `CCNc1nn([C@@H](C)CO)c2c1/C=C/c1n[nH]c3cnc(cc13)-c1c(C)nn(C)c1O[C@@H](C)CN(C)C2` [Ex. 93, (2S)-2-[(10S,17E)-16-(ethylamino)-6,8,10,12-tetramethyl-2,8,10,11,12,13-hexahydro-14H-5,3-(azenometheno)tripyrazolo[3,4-f:3′,4′-j:4″,3″-n][1,4]oxazacyclopentadecin-14-yl]propan-1-ol], for which the IC50 worked out at 1.65 nM in [1]; 3.54 nM in assay [2]; 0.51 nM with HCC827 cells; 1.98 nM with PC-9 cells; 0.13 nM in assay [3]; 2 nM in the assay on NCI-H1975 cells. For the same compound, the IC50 in assay [4] amounted to 19.6 nM; in [5], 1.8 nM; in assay [6], 2.05 nM.
Turning to `CCOc1nn([C@@H](C)CO)c2c1/C=C/c1n[nH]c3c(C)nc(cc13)-c1c(C)nn(C)c1O[C@@H](C)[C@H]1CCCN1C2` [Ex. 179, (2S)-2-[(8aR,9S,19E)-1-ethoxy-9,11,13,21-tetramethyl-7,8,8a,9,11,17-hexahydro-6H-14,16-(azenometheno)tripyrazolo[3,4-f:3′,4′-j:4″,3″-n]pyrrolo[2,1-c][1,4]oxazacyclopentadecin-3(4H)-yl]propan-1-ol], the IC50 in assay [1] stood at 1.47 nM; in [2], 1.38 nM; with HCC827 cells, 0.23 nM; with PC-9 cells, 0.78 nM; in assay [3] it was 0.1 nM; in the assay on NCI-H1975 cells, 1.41 nM. Moreover, the half-inhibitory concentration (IC50) stood at 8.64 nM in [4], 0.88 nM in assay [5] and 0.69 nM in assay [6].
Regarding `CCN(C)c1nn([C@@H](C)CO)c2c1/C=C/c1n[nH]c3c(C)nc(cc13)-c1c(C)nn(C)c1O[C@@H](C)CN(C)C2` [Ex. 102, (2S)-2-[(10S,17E)-16-[ethyl(methyl)amino]-6,8,10,12,20-pentamethyl-2,8,10,11,12,13-hexahydro-14H-5,3-(azenometheno)tripyrazolo[3,4-f:3′,4′-j:4″,3″-n][1,4]oxazacyclopentadecin-14-yl]propan-1-ol], the IC50 in assay [1] was 12.2 nM; in the assay on HCC827 cells it was 25.3 nM; with PC-9 cells, 52.8 nM; in assay [3], 3.16 nM; with NCI-H1975 cells, 57 nM; in [5], 204 nM.
For the compound `CCOc1nn([C@@H](C)CO)c2c1/C=C/c1n[nH]c3cnc(cc13)-c1c(C)nn(C)c1O[C@@H](C)CN(C(C)=O)C2` [Ex. 112, 1-[(10S,17E)-16-ethoxy-14-[(2S)-1-hydroxypropan-2-yl]-6,8,10-trimethyl-2,8,10,11,13,14-hexahydro-12H-5,3-(azenometheno)tripyrazolo[3,4-f:3′,4′-j:4″,3″-n][1,4]oxazacyclopentadecin-12-yl]ethan-1-one], the IC50 worked out at 97.7 nM in [1], 29.5 nM in assay [3] and 396 nM in assay [5].
Consider `CC(C)Oc1nn(CCO)c2c1/C=C/c1n[nH]c3cnc(cc13)-c1cnn(C)c1OC[C@H](C)N(C(C)C)C2` [Ex. 4, 2-[(11S,17E)-8,11-dimethyl-12-(propan-2-yl)-16-[(propan-2-yl)oxy]-2,8,10,11,12,13-hexahydro-14H-5,3-(azenometheno)tripyrazolo[3,4-f:3′,4′-j:4″,3″-n][1,4]oxazacyclopentadecin-14-yl]ethan-1-ol], for which the IC50 worked out at 2.81 nM in [1]; 17.7 nM in assay [2]; 6.03 nM in the assay on HCC827 cells; 115 nM in the assay on PC-9 cells; 1.36 nM against EGFR (L858R/T790M/C797S); 3.07 nM against EGFR (D770_N771insNPG). Moreover, the IC50 amounted to 2.6 nM in assay [3]; 74.9 nM in the assay on NCI-H1975 cells; 442 nM in assay [4]; 789 nM in [6]; 0.59 nM against EGFR (D746-750); 1.44 nM at EGFR (D746-750/C797S).
With `Cc1nn(C)c2c1-c1cc3c(n[nH]c3cn1)/C=C/c1c(OCC#N)nn(CCO)c1CN(C)[C@@H](C)CO2` [Ex. 31], the concentration for half-maximal inhibition (IC50) in assay [1] was determined as 25.9 nM; in [2], 41.6 nM; with HCC827 cells, 11.6 nM; with PC-9 cells, 226 nM; against EGFR (L858R/T790M/C797S) it was 0.29 nM; against EGFR (D770_N771insNPG), 2.23 nM. For the same compound, the IC50 in assay [3] is 3.72 nM; with NCI-H1975 cells, 358 nM; in assay [4] it was 119 nM; in assay [6], 65.1 nM; at EGFR (D746-750) it was 0.27 nM; against EGFR (D746-750/C797S), 0.78 nM.
`CCN(C)c1nn([C@@H](C)CO)c2c1/C=C/c1n[nH]c3cnc(cc13)-c1c(C)nn(C)c1O[C@@H](C)CN(C)C2` [Ex. 105, (2S)-2-[(10S,17E)-16-[ethyl(methyl)amino]-6,8,10,12-tetramethyl-2,8,10,11,12,13-hexahydro-14H-5,3-(azenometheno)tripyrazolo[3,4-f:3′,4′-j:4″,3″-n][1,4]oxazacyclopentadecin-14-yl]propan-1-ol]: the IC50 in [1] is 147 nM; in [2], 274 nM; with HCC827 cells, 52.1 nM; with PC-9 cells, 209 nM; in [3], 15.5 nM; in assay [4], 365 nM. Besides, the IC50 in [5] was 700 nM; in assay [6], 319 nM.
As for `CCOc1nn(CCO)c2c1/C=C/c1n[nH]c3cnc(cc13)-c1c(cnn1C)OCCN(C)C2` [Ex. 104, 2-[(17E)-16-ethoxy-6,12-dimethyl-2,6,10,11,12,13-hexahydro-14H-5,3-(azenometheno)tripyrazolo[3,4-f:3′,4′-j:3″,4″-n][1,4]oxazacyclopentadecin-14-yl]ethan-1-ol], the IC50 in [1] amounted to 36.2 nM; in [2], 50.5 nM; in the assay with HCC827 cells, 13.9 nM; in the assay on PC-9 cells, 59 nM; in assay [3], 6.89 nM; in assay [4], 146 nM. The figures for the IC50 in assay [5] and in [6] were 63.9 nM and 39.8 nM, respectively.
As to `C=CC(=O)N1Cc2c(c(OCC)nn2[C@@H](C)CO)/C=C/c2n[nH]c3cnc(cc23)-c2c(C)nn(C)c2O[C@@H](C)C1` [Ex. 115, 1-[(10S,17E)-16-ethoxy-14-[(2S)-1-hydroxypropan-2-yl]-6,8,10-trimethyl-2,8,10,11,13,14-hexahydro-12H-5,3-(azenometheno)tripyrazolo[3,4-f:3′,4′-j:4″,3″-n][1,4]oxazacyclopentadecin-12-yl]prop-2-en-1-one], the IC50 in [1] was found to be 31.9 nM; with HCC827 cells, 1.47 nM; in the assay with PC-9 cells it was 3.35 nM; in assay [3], 9.04 nM; in the assay with NCI-H1975 cells it was 6.13 nM; in assay [5], 3.05 nM.

A word on the IC50: it is the concentration at which inhibition is half-maximal.
